Like-named read-outs stand apart in the source and are kept apart here.
Assays:
[1] = Pharmacokinetics study in rats (plasma and brain); assay type: in vivo, Sprague−Dawley rats; conditions: rat, 10 mg/kg IP
Procedure: Given their adequate in vitro stability profiles, we next evaluated the in vivo pharmacokinetic profiles of 14, 15, 17, and 18 in rats. Sprague−Dawley rats were dosed with 5 mg/kg (14, 15, 17) or 10 mg/kg (18), i.p., and plasma and brain levels of each drug were measured 0−6 h postdose.
All animal experiments were performed following the protocols evaluated and approved by the Animal Care and Use Committee at Johns Hopkins University (Ethics Approval Number: RA24M403). Pharmacokinetic studies in Sprague−Dawley (SD) rats were conducted according to protocols approved. SD rats obtained from Harlan were maintained on a 12 h light−dark cycle with ad libitum access to food and water. Test compound was administered via i.p. injection at a dose of 10 mg/kg (100% saline vehicle, 10 mL/kg volume). The rats were sacrificed at specified time points (0.25, 0.5 h, 1, 2, 4, and 6 h) post drug administration. For the collection of plasma and brain tissue, animals were euthanized with CO2, and blood samples were collected in heparinized microtubes by cardiac puncture. Brains were dissected and immediately flash-frozen (−80 °C). Blood samples were spun at 2000g for 15 min, and plasma was removed and stored at −80 °C until analysis (as described below).
Quantitation of triazole analogs 14, 15, 17, and 18 was performed using liquid chromatography with tandem mass spectrometry (LC/MS-MS) methods. Briefly, calibration standards were prepared using respective tissue (naïve plasma and brain) with additions of the test compounds. For quantifying the test compounds in the pharmacokinetic samples, plasma samples (20 μL) were processed using a single liquid extraction method by addition of 100 μL of acetonitrile containing internal standard (losartan: 0.5 μM), followed by vortex-mixing for 30 s and then centrifugation at 10,000g for 10 min at 4 °C. Brain tissues were diluted 1:5 w/v with acetonitrile containing losartan (0.5 μm) and homogenized, followed by vortex-mixing and centrifugation at 10,000g for 10 min at 4 °C. A 50 μL aliquot of the supernatant was diluted with 50 μL of water and transferred to 250 μL polypropylene autosampler vials sealed with Teflon caps. Two μL of the sample was injected into the LC/MS/MS system for analysis. Chromatographic analysis was performed using an Accela ultra high-performance system consisting of an analytical pump and an autosampler coupled with a TSQ Vantage mass spectrometer. […] The mobile phase consisted of 0.1% formic acid in acetonitrile and 0.1% formic acid in water with gradient elution, starting with 10% organic phase (from 0 to 1 min) linearly increasing to 95% (from 1 to 2 min), and re-equilibrating to 10% by 3 min. The total run time for each analyte was 3.5 min. Pumps were operated at a flow rate of 0.4 mL/min. […] Plasma concentrations (nmol/mL) as well as brain tissue concentrations (nmol/g) were determined and plots of mean plasma concentration versus time were constructed. Noncompartmental analysis modules in Phoenix WinNonlin version 7.0 (Certara USA, Inc., Princeton, NJ) were used to quantify exposures (AUC0−t) and half-life (t1/2).

[2] = target: T1, D1 (Homo sapiens, UniProt P21728); test: PDSP primary screen and secondary assay, D1; assay type: binding
T1 construct: Psychoactive Drug Screening Program (PDSP)
Source text: Receptor Primary Secondary Primary Secondary Primary Secondary Primary Secondary screen assay screen assay screen assay screen assay […]
inhibition in primary assessment.

[3] = target: T2, human D4R (Homo sapiens, UniProt P21917); test: DiscoverX PathHunter β-arrestin recruitment assay, D4R
T2 sequence (P21917 1-419): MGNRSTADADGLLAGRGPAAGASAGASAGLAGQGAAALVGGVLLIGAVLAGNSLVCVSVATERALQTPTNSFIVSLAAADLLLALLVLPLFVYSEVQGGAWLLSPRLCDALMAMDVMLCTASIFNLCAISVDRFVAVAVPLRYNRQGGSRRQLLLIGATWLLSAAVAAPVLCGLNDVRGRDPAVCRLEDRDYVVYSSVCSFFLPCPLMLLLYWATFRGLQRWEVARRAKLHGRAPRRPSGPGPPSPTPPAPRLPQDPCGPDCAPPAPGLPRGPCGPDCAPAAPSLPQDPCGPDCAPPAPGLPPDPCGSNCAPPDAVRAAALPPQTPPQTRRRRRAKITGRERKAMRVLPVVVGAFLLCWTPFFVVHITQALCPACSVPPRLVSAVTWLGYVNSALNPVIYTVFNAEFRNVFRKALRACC

[4] = Phase I metabolic stability in human liver microsomes (with NADPH); assay type: in vitro ADME; conditions: pH 7.4, presence of NADPH, mean ± SD, n = 3
Procedure: (§1) We evaluated the Phase I metabolic stability of compounds 2−7 and 14−19 using rat and human liver microsomes, as previously described.[45]
(§2) Phase I metabolic stability assays were conducted using rat and human liver microsomes as previously described[45],[70] with minor modifications. In brief, the reactions were carried out with 100 mM potassium phosphate buffer, pH 7.4, in the presence of NADPH regenerating system (1.3 mM NADPH, 3.3 mM glucose 6-phosphate, 3.3 mM MgCl2, 0.4 U/mL glucose-6-phosphate dehydrogenase, 50 μM sodium citrate). Negative controls without cofactors were assessed to determine the non-CYP-mediated metabolism. Compound disappearance was monitored over time using a liquid chromatography and tandem mass spectrometry (LC/MS) method. All reactions were performed in triplicate.
(§3) Chromatographic analysis was performed on a Dionex ultra high-performance LC system coupled with Q Exactive Focus orbitrap mass spectrometer (Thermo Fisher Scientific Inc., Waltham MA). Separation was achieved using Agilent Eclipse Plus column (100 × 2.1 mm^2 i.d.; maintained at 35 °C) packed with a 1.8 μm C18 stationary phase. […] The total run time for each analyte was 6.5 min. Pumps were operated at a flow rate of 0.3 mL/min. The mass spectrometer controlled by Xcalibur software 4.0.27.13 (Thermo Scientific) was operated with a HESI ion source in positive ionization mode. Compounds were identified in the full-scan mode (from m/z 50 to 750) by comparing t = 0 samples with t = 30 min and t = 60 min samples.

[5] = Phase I metabolic stability in rat liver microsomes (with NADPH); assay type: in vitro ADME; conditions: pH 7.4, presence of NADPH, mean ± SD, n = 3
Procedure: as §1, §2, §3

[6] = target: human D2R long isoform (Homo sapiens, UniProt P14416); test: DiscoverX PathHunter β-arrestin recruitment assay, D2R
[7] = antagonist mode, EC80 dopamine (1 μM), normalized to spiperone

T1 sequence (P21728 whole entry): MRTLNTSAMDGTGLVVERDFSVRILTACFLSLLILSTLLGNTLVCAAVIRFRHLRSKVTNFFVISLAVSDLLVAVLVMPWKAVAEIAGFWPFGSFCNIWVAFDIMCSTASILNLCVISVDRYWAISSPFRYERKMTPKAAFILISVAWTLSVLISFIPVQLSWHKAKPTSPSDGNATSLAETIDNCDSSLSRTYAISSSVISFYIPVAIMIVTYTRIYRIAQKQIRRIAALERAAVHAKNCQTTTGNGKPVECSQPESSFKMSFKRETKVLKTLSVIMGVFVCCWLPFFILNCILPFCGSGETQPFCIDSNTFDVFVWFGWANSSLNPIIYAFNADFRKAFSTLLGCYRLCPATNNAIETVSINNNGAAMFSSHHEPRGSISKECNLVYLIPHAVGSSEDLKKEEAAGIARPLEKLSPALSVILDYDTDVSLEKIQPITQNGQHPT
human D2R long isoform, sequence (P14416 whole entry, canonical isoform): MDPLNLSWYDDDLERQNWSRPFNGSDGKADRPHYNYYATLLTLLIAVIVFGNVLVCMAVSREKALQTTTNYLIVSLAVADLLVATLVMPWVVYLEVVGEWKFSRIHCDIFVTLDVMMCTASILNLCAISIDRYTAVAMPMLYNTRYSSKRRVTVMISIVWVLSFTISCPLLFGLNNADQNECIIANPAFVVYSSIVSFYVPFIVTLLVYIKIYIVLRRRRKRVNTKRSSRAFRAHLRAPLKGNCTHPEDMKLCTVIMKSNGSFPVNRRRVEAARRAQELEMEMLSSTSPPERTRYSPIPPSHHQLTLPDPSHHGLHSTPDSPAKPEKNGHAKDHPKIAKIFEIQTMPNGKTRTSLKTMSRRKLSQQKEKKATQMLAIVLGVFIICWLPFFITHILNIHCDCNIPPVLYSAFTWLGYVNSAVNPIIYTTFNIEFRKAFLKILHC

Cc1cccc(-n2cc(CN3CCN(c4cccc5ccccc45)CC3)nn2)c1 [Compound 18, 1-(Naphthalen-1-yl)-4-((1-(m-tolyl)-1H-1,2,3-triazol-4-yl)methyl)piperazine]
Kp ([1]; Sprague-Dawley, brain and plasma, ip, 10 mg/kg, AUC brain/plasma, read-out: brain: Plasma ratio): > 2.6
half-life ([1]; Sprague-Dawley, brain, ip, 10 mg/kg, brain, read-out: half-life (h) brain (converted)): 2.46 h
half-life ([1]; Sprague-Dawley, plasma, ip, 10 mg/kg, plasma, read-out: half-life (h) plasma (converted)): 2.54 h
half-life ([1]; Sprague-Dawley, plasma, ip, 10 mg/kg, tissue not specified, read-out: half-life (converted)): ~2.5 h
Tmax ([1]; Sprague-Dawley, brain, read-out: Tmax (h) brain): 0.5 h
AUC ([1]; Sprague-Dawley, plasma): 1.36 ± 0.29 µM·h
Cmax ([1]; Sprague-Dawley, plasma): 700 ± 90 nM
Tmax ([1]; Sprague-Dawley, plasma, read-out: Tmax (h) plasma): 0.5 h
brain: Plasma ratio ([1]; AUC brain/plasma, 10 mg/kg): 2.63
AUC brain ([1]; brain): 3.57 ± 0.77 nmol·h/g
Cmax brain ([1]; brain): 2.08 ± 0.20 nmol/g
peak in vivo brain concentrations expected ([1]; from brain Cmax): greater than 2.0 μM
Ki [2]: 783 nM
inhibition at 10 µM ([2]; 10 µM compound): 59.3%
EC50 [3]: > 10 µM
IC50 [3]: 3.6 ± 1.1 µM
D4R average activity at the highest tested dose ([3]; agonist mode, at 10 μM (Emax ND)): ND (8% at 10 μM)
D4R Ant. (%) [3, 7]: 92.1 ± 12.1%
half-life [4]: 1.02 ± 0.129 h
half-life [5]: 0.946 ± 0.169 h
IC50 [6]: 4.7 ± 1.1 µM
D2R Ant (%) [6, 7]: 87.8 ± 26.7%

Reference: paper PMC12910498 (ACS pharmacology & translational science, 2026)
